Tests used:
BSA [1] = target: T1, BSA (Bos taurus, UniProt P02769); test: DSC thermal unfolding of BSA in water and aqueous solutions of ABS phase-forming components; assay type: physicochemical, bovine; conditions: for Tm / ΔG / ΔHcal / ΔHcal/ΔHvH / ΔHvH / ΔS: 1.0 mg/mL BSA
T1 construct: purchased Millipore Sigma-Aldrich
Summary of the method: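 T m and unfolding enthalpy (ΔH) of BSA were taken from heat capacity versus temperature scans by nano DSC. BSA was scanned in water and with increasing concentrations of each ABS phase-forming component. T m is the midpoint of the thermal unfolding transition.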

BSA [2] = target: T1, BSA; test: Far-UV CD secondary structure of BSA (CONTIN-LL deconvolution); assay type: physicochemical, bovine; parameters: Regular Alpha Helix / Distorted Alpha Helix / Regular Beta Sheet / Distorted Beta Sheet / Turns / Unordered: unit not given here; conditions: 1.0 mg/mL BSA, 25 °C
Summary of the method: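 Far-UV CD spectra (190–260 nm) of BSA at 1 mg/mL with solvent at 0.1 to 200 mM, 10 mm cuvette, room temperature, 50 nm/min, 4 accumulations, duplicates combined. Converted to MRE; secondary structure deconvoluted by CONTIN-LL with SMP180 reference set.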

T1 sequence (P02769 25-607): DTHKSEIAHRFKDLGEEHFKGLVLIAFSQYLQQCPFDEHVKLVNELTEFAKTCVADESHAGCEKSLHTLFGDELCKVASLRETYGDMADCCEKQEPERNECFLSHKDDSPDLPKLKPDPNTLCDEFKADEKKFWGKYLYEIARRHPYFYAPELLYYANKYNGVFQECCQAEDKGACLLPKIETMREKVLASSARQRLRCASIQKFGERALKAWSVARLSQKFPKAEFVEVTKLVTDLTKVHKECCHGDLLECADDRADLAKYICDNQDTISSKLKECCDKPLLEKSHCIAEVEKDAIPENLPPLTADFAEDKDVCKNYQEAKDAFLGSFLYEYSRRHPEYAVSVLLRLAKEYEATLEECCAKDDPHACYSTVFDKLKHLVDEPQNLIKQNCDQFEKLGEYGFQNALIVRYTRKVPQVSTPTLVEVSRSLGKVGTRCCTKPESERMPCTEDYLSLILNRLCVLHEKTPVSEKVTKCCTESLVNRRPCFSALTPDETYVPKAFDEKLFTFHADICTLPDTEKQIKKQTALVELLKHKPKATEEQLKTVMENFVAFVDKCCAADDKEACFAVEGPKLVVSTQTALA

C[N+](C)(C)CCO.O=S(=O)([O-])C(F)(F)C(F)(F)C(F)(F)C(F)(F)F [[N1112(OH)][C4F9SO3], (2-hydroxyethyl)trimethylammonium perfluorobutane sulfonate]
Tm (BSA [1]; 0.1 mM component): 79.77 °C
ΔG (BSA [1]; 0.1 mM component): 22.44 kcal/mol
ΔHcal (BSA [1]; 0.1 mM component): 144.1 kcal/mol
ΔHcal/ΔHvH (BSA [1]; 0.1 mM component): 1.064
ΔHvH (BSA [1]; 0.1 mM component): 135.5 kcal/mol
ΔS (BSA [1]; 0.1 mM component): 1.708 KJ/(mol.K)
Tm (BSA [1]; 1 mM component): 80.57 °C
ΔG (BSA [1]; 1 mM component): 22.08 kcal/mol
ΔHcal (BSA [1]; 1 mM component): 138.2 kcal/mol
ΔHcal/ΔHvH (BSA [1]; 1 mM component): 0.921
ΔHvH (BSA [1]; 1 mM component): 150 kcal/mol
ΔS (BSA [1]; 1 mM component): 1.629 KJ/(mol.K)
Tm (BSA [1]; 5 mM component): 79.79 °C
ΔG (BSA [1]; 5 mM component): 26.41 kcal/mol
ΔHcal (BSA [1]; 5 mM component): 169.4 kcal/mol
ΔHcal/ΔHvH (BSA [1]; 5 mM component): 0.884
ΔHvH (BSA [1]; 5 mM component): 191.5 kcal/mol
ΔS (BSA [1]; 5 mM component): 2.007 KJ/(mol.K)
Tm (BSA [1]; 10 mM component): 82.78 °C
ΔG (BSA [1]; 10 mM component): 32.27 kcal/mol
ΔHcal (BSA [1]; 10 mM component): 197.9 kcal/mol
ΔHcal/ΔHvH (BSA [1]; 10 mM component): 1.156
ΔHvH (BSA [1]; 10 mM component): 171.3 kcal/mol
ΔS (BSA [1]; 10 mM component): 2.325 KJ/(mol.K)
Tm (BSA [1]; 25 mM component): 84.18 °C
ΔG (BSA [1]; 25 mM component): 30.31 kcal/mol
ΔHcal (BSA [1]; 25 mM component): 182 kcal/mol
ΔHcal/ΔHvH (BSA [1]; 25 mM component): 1.019
ΔHvH (BSA [1]; 25 mM component): 178.6 kcal/mol
ΔS (BSA [1]; 25 mM component): 2.128 KJ/(mol.K)
Tm (BSA [1]; 55 mM component): 86.11 °C
ΔG (BSA [1]; 55 mM component): 31.57 kcal/mol
ΔHcal (BSA [1]; 55 mM component): 184.7 kcal/mol
ΔHcal/ΔHvH (BSA [1]; 55 mM component): 0.929
ΔHvH (BSA [1]; 55 mM component): 198.7 kcal/mol
ΔS (BSA [1]; 55 mM component): 2.149 KJ/(mol.K)
Tm (BSA [1]; 200 mM component): 87.23 °C
ΔG (BSA [1]; 200 mM component): 28.51 kcal/mol
ΔHcal (BSA [1]; 200 mM component): 167.9 kcal/mol
ΔHcal/ΔHvH (BSA [1]; 200 mM component): 1.024
ΔHvH (BSA [1]; 200 mM component): 163.9 kcal/mol
ΔS (BSA [1]; 200 mM component): 1.956 KJ/(mol.K)
increase of BSA Tm (DSC) (BSA [1]; FIL at the highest concentration (120 mM) vs water): ~12 °C
Distorted Alpha Helix (BSA [2]; 0.1 mM component): 0.214
Distorted Beta Sheet (BSA [2]; 0.1 mM component): 0.025
Regular Alpha Helix (BSA [2]; 0.1 mM component): 0.418
Regular Beta Sheet (BSA [2]; 0.1 mM component): 0.000
Turns (BSA [2]; 0.1 mM component): 0.138
Unordered (BSA [2]; 0.1 mM component): 0.205
Distorted Alpha Helix (BSA [2]; 1 mM component): 0.225
Distorted Beta Sheet (BSA [2]; 1 mM component): 0.024
Regular Alpha Helix (BSA [2]; 1 mM component): 0.428
Regular Beta Sheet (BSA [2]; 1 mM component): 0.000
Turns (BSA [2]; 1 mM component): 0.138
Unordered (BSA [2]; 1 mM component): 0.185
Distorted Alpha Helix (BSA [2]; 5 mM component): 0.222
Distorted Beta Sheet (BSA [2]; 5 mM component): 0.025
Regular Alpha Helix (BSA [2]; 5 mM component): 0.423
Regular Beta Sheet (BSA [2]; 5 mM component): 0.000
Turns (BSA [2]; 5 mM component): 0.139
Unordered (BSA [2]; 5 mM component): 0.192
Distorted Alpha Helix (BSA [2]; 25 mM component): 0.215
Distorted Beta Sheet (BSA [2]; 25 mM component): 0.025
Regular Alpha Helix (BSA [2]; 25 mM component): 0.406
Regular Beta Sheet (BSA [2]; 25 mM component): 0.000
Turns (BSA [2]; 25 mM component): 0.140
Unordered (BSA [2]; 25 mM component): 0.214
Distorted Alpha Helix (BSA [2]; 55 mM component): 0.208
Distorted Beta Sheet (BSA [2]; 55 mM component): 0.027
Regular Alpha Helix (BSA [2]; 55 mM component): 0.392
Regular Beta Sheet (BSA [2]; 55 mM component): 0.000
Turns (BSA [2]; 55 mM component): 0.144
Unordered (BSA [2]; 55 mM component): 0.228
Distorted Alpha Helix (BSA [2]; 90 mM component): 0.199
Distorted Beta Sheet (BSA [2]; 90 mM component): 0.036
Regular Alpha Helix (BSA [2]; 90 mM component): 0.376
Regular Beta Sheet (BSA [2]; 90 mM component): 0.022
Turns (BSA [2]; 90 mM component): 0.152
Unordered (BSA [2]; 90 mM component): 0.215
Distorted Alpha Helix (BSA [2]; 120 mM component): 0.205
Distorted Beta Sheet (BSA [2]; 120 mM component): 0.032
Regular Alpha Helix (BSA [2]; 120 mM component): 0.400
Regular Beta Sheet (BSA [2]; 120 mM component): 0.012
Turns (BSA [2]; 120 mM component): 0.147
Unordered (BSA [2]; 120 mM component): 0.203
Distorted Alpha Helix (BSA [2]; 200 mM component): 0.207
Distorted Beta Sheet (BSA [2]; 200 mM component): 0.032
Regular Alpha Helix (BSA [2]; 200 mM component): 0.406
Regular Beta Sheet (BSA [2]; 200 mM component): 0.017
Turns (BSA [2]; 200 mM component): 0.147
Unordered (BSA [2]; 200 mM component): 0.191

Reference: paper PMC10931833, “Simultaneous Purification of Human Interferon Alpha-2b and Serum Albumin Using Bioprivileged Fluorinated Ionic Liquid-Based Aqueous Biphasic Systems” (International Journal of Molecular Sciences, 2024)
